According to patent US6380216B1, “Use of (+)-α-(2,3-dimethoxyphenyl)-1-[2-(4-fluorophenyl) ethyl]-4-piperidinemethanol in treating depressive disorders and bipolar disorders” (Aventis Pharmaceuticals Inc., priority 1996, dated 2002):

Assays:
[1] = tested on: cholinergic M1/M2 receptors; assay: affinity for the cholinergic M1/M2 receptors; assay type: binding
From the text: It is orally active, non-toxic at therapeutic doses and potent. It is also capable of being sealed-up for commercial synthesis. Additionally, neurochemical studies indicate that there is a serotonin/dopamine interaction following chronic administration of this compound as described in Life Sciences 56(25): 2209-2222 (1995), incorporated herein by reference. The combination of the foregoing characteristics produces a unique compound for treating patients having either Depressive Disorders of Bipolar Disorders.

D1 (dopamine) receptor = D1 (dopamine) receptor (Homo sapiens, UniProt P21728); assay: affinity for the D1 (dopamine) receptor in in vitro models; assay type: binding
D2 (dopamine) receptor = D2 (dopamine) receptor (Homo sapiens, UniProt P14416); assay: affinity for the D2 (dopamine) receptor in in vitro models; assay type: binding
Male Wistar rats = assay: Chronic Mild Stress Model of Depression (CMS), sucrose intake
From the text: CMS uses mild stressors, such as food and water deprivation, small temperature changes, changes of cage mates, etc. Over a period of weeks of exposure to the mild stressors, the animals gradually reduce their consumption of a highly preferred sucrose solution which persists (in untreated animals) for several weeks following the cessation of stress.
Male Wistar rats were brought into the laboratory two months before the start of the experiment at which time they weighed aprroximately 300 grams. Except as described below, the animals were singly housed, with food an eater freely available, and maintained on a 12 hour light/dark cycle (lights on at 8 AM) at a temperature of 22±° C.
The animals were first trained to consume a 1% sucrose solution; training consisted of eight 1 hour baseline tests in which sucrose was presented, in the home cage, following 14 hours food and water deprivation; intake was measured by weighing pre-weighed bottles containing the sucrose solution at the end of the test. Subsequently, sucrose consumption was monitored, under similar conditions, at weekly intervals throughout the whole experiment.
On the basis of their sucrose intakes in the final baseline test, the animals were divided into two matched groups. One group of animals was subjected to a chronic mild stress procedure for a period of 9 consecutive weeks. Each week of stress regime consisted of: two periods of food or water deprivation (12 and 14 hour), two periods of 45 degree cage tilt (12 and 14 h), two periods of intermittent overnight illumination (lights on and off every 2 hours), two 14 hour periods of soled cage (200 ml water in sawdust bedding), two 14 hour periods of paired housing, two 14 hour periods of low intensity stroboscopic illumination (150 flashes/min). Stressors were applied continuously throughout the day and night, and scheduled randomly. […] They were deprived of food and water for the 14 hours preceding each sucrose test, but otherwise food and water were freely available in the home cage. […] All drug injections were in a volume of 1 ml/kg body weight. Drugs were administered at 10 AM and sucrose tests were carried out 24 hours following the last drug treatment. After five weeks, the treatments were terminated and after one week of withdrawal a final sucrose test was carried out. Stress was continued throughout the period of treatment and withdrawal.
Results were analyzed by multiple analysis of variance, followed by Fisher's LSD test for post hoc comparisons of means.

α-1 receptor = assay: affinity for the α-1 receptor in in vitro models; assay type: binding

D2 (dopamine) receptor, sequence (P14416 whole entry): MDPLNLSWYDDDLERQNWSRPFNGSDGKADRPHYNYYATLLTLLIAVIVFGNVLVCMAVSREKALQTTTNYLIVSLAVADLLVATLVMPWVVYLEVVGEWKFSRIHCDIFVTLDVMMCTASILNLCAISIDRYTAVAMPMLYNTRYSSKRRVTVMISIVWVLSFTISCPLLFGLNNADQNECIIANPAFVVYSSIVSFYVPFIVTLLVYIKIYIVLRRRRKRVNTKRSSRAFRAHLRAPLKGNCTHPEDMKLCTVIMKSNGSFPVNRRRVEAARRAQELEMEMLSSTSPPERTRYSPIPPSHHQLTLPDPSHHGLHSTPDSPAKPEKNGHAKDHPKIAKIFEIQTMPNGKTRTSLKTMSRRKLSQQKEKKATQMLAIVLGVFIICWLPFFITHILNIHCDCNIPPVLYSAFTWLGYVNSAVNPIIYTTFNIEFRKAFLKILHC
D1 (dopamine) receptor, sequence (P21728 whole entry): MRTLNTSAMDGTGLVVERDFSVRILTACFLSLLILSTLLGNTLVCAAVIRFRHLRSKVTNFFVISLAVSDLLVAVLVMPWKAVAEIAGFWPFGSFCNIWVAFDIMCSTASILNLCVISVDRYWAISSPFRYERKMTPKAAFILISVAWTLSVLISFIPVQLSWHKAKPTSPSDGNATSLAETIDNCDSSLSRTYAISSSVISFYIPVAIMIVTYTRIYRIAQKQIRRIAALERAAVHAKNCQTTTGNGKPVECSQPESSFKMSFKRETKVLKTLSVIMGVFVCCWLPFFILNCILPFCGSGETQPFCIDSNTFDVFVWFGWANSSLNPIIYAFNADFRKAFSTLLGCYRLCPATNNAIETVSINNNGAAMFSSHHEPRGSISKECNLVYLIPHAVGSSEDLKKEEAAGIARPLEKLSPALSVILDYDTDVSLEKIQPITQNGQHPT

| affinity for the cholinergic M1/M2 receptors [1] | affinity for the D1 (dopamine) receptor (D1 (dopamine) receptor) | affinity for the D2 (dopamine) receptor (D2 (dopamine) receptor) | affinity for the α-1 receptor (α-1 receptor) | SMILES | effect on sucrose intake in control animals (Male Wistar rats; control (unstressed) rats, 0.002, 0.02 and 0.2 mg/kg orally daily, five weeks) | sucrose intakes one week after withdrawal from the treatment (Male Wistar rats; control and stressed rats, 0.002, 0.02 and 0.2 mg/kg orally, one week after withdrawal) | weeks of treatment after which sucrose intake was significantly increased from initial scores (Week 0) (Male Wistar rats; stressed rats, 0.02 mg/kg orally daily) | amount of sucrose solution drunk at the end of treatment period (Week 5) (Male Wistar rats; stressed rats, 0.02 mg/kg orally daily, Week 5) | weeks of treatment after which sucrose intake was significantly increased from initial scores (Week 0) (Male Wistar rats; stressed rats, 0.2 mg/kg orally daily) | amount of sucrose solution drunk at the end of treatment period (Week 5) (Male Wistar rats; stressed rats, 0.2 mg/kg orally daily, Week 5) | effect on sucrose intake in stressed animals (Male Wistar rats; stressed rats, 0.002, 0.02 and 0.2 mg/kg orally daily, five weeks (overall Treatment effect)) | effect on sucrose intake throughout the whole treatment period (Male Wistar rats; stressed rats, lowest dose 0.002 mg/kg orally daily, five weeks) | effect on sucrose intake in control animals (Male Wistar rats; control (unstressed) rats, 10 mg/kg ip daily, five weeks) | weeks of treatment after which sucrose intake was significantly increased from Week 0 scores (Male Wistar rats; stressed rats, 10 mg/kg ip daily) | sucrose intake after five weeks of treatment compared with controls (Male Wistar rats; stressed rats, 10 mg/kg ip daily, Week 5) | effect on sucrose intake in stressed animals (Male Wistar rats; stressed rats, 10 mg/kg ip daily, five weeks) | sucrose intake one week after withdrawal from the drug (Male Wistar rats; stressed rats, 10 mg/kg ip, one week after withdrawal) |
| --- | --- | --- | --- | --- | --- | --- | --- | --- | --- | --- | --- | --- | --- | --- | --- | --- | --- |
| little affinity | greater than 100 nM | greater than 100 nM | greater than 100 nM | COc1cccc(C(O)C2CCN(CCc3ccc(F)cc3)CC2)c1OC (stereo not drawn) [THE COMPOUND, (+)-α-(2,3-dimethoxyphenyl)-1-[2-(4-fluorophenyl)ethyl]-4-piperidinemethanol] | no significant effect | not significantly changed | two | comparable to that of vehicle-treated controls and significantly higher than that of vehicle-treated stressed animals | three | comparable to that of vehicle-treated controls and significantly higher than that of vehicle-treated stressed animals | gradually reversed the CMS-induced deficit in sucrose intake | no significant effect | – | – | – | – | – |
| – | – | – | – | CN(C)CCCN1c2ccccc2CCc2ccccc21 [Imipramine, reference compound] | – | – | – | – | – | – | – | – | no significant effect | four | no significant differences between drug-treated stressed animals and drug- and saline-treated controls | gradual increase of sucrose intake | maintained at similar level |
